Data published in PubChem BioAssay (NCI).
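Following 48 hours of exposure in 96-well plates, responses at five concentrations were used to interpolate endpoints linearly. TGI: concentration producing complete growth inhibition.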

Columns and labels:
Experiment in all cases: NCI anticancer screen, dose series, 48 h
[1] = system: SW-620 colon
[2] = system: RXF 393 renal
[3] = system: MDA-N
[4] = system: NCI-H23 lung
[5] = system: MDA-MB-435
[6] = system: BT-549 breast
[7] = system: U251 CNS
[8] = system: RPMI-8226 leukemia
[9] = system: LOX IMVI melanoma
[10] = system: UACC-62 melanoma
[11] = system: A498 renal
[12] = system: HL-60(TB) leukemia
[13] = system: K-562 leukemia
[14] = system: HCT-116 colon
[15] = system: SR leukemia
[16] = system: SF-295 CNS
[17] = system: M14 melanoma
[18] = system: ACHN renal
[19] = system: NCI-H460 lung
[20] = system: CCRF-CEM leukemia
[21] = system: DU-145 prostate
[22] = system: OVCAR-5 ovarian
[23] = system: SK-MEL-28 melanoma
[24] = system: UO-31 renal
[25] = system: HT29 colon
[26] = system: SF-268 CNS
[27] = system: HCT-15 colon
[28] = system: NCI/ADR-RES ovarian
[29] = system: OVCAR-3 ovarian
[30] = system: SK-MEL-2 melanoma
[31] = system: 786-0 renal
[32] = system: EKVX NSCLC
[33] = system: SNB-19 CNS
[34] = system: HCC-2998 colon
[35] = system: MCF7 breast
[36] = system: HS 578T breast
[37] = system: SK-OV-3 ovarian
[38] = system: SK-MEL-5 melanoma
[39] = system: MDA-MB-231 breast
[40] = system: UACC-257 melanoma
[41] = system: SN12C renal
[42] = system: NCI-H522 lung
[43] = system: SNB-75 CNS
[44] = system: OVCAR-8 ovarian
[45] = system: TK-10 renal
[46] = system: T-47D breast
[47] = system: OVCAR-4 ovarian
[48] = system: HOP-92 NSCLC
[49] = system: HOP-62 NSCLC
[50] = system: KM12 colon
[51] = system: CAKI-1 renal
[52] = system: MALME-3M melanoma
[53] = system: IGROV1 ovarian
[54] = system: A549 NSCLC
[55] = system: MOLT-4 leukemia
[56] = system: SF-539 CNS
[57] = system: COLO 205 colon
[58] = system: NCI-H226 lung
[59] = system: PC-3 prostate

O=P(O)(O)OC1OC(CO)C(O)C(O)C1O (stereo not drawn)
TGI [1]: > 100 µM
TGI [2]: > 100 µM
TGI [3]: > 100 µM
TGI [4]: > 100 µM
TGI [5]: > 100 µM
TGI [6]: > 100 µM
TGI [7]: > 100 µM
TGI [8]: > 100 µM
TGI [9]: > 100 µM
TGI [10]: > 100 µM
TGI [11]: > 100 µM
TGI [12]: > 100 µM
TGI [13]: > 100 µM
TGI [14]: > 100 µM
TGI [15]: > 100 µM
TGI [16]: > 100 µM
TGI [17]: > 100 µM
TGI [18]: > 100 µM
TGI [19]: > 100 µM
TGI [20]: > 100 µM
TGI [21]: > 100 µM
TGI [22]: > 100 µM
TGI [23]: > 100 µM
TGI [24]: > 100 µM
TGI [25]: > 100 µM
TGI [26]: > 100 µM
TGI [27]: > 100 µM
TGI [28]: > 100 µM
TGI [29]: > 100 µM
TGI [30]: > 100 µM
TGI [31]: > 100 µM
TGI [32]: > 100 µM
TGI [33]: > 100 µM
TGI [34]: > 100 µM
TGI [35]: > 100 µM
TGI [36]: > 100 µM
TGI [37]: > 100 µM
TGI [38]: > 100 µM
TGI [39]: > 100 µM
TGI [40]: > 100 µM
TGI [41]: > 100 µM
TGI [42]: > 100 µM
TGI [43]: > 100 µM
TGI [44]: > 100 µM
TGI [45]: > 100 µM
TGI [46]: > 100 µM
TGI [47]: > 100 µM
TGI [48]: > 100 µM
TGI [49]: > 100 µM
TGI [50]: > 100 µM
TGI [51]: > 100 µM
TGI [52]: > 100 µM
TGI [53]: > 100 µM
TGI [54]: > 100 µM

O=c1n(N=S(=O)(c2ccccc2)c2ccccc2)c(=O)n2n1C1C=CC2CC1
TGI [1]: > 100 µM
TGI [3]: > 100 µM
TGI [4]: > 100 µM
TGI [5]: > 100 µM
TGI [55]: > 100 µM
TGI [6]: > 100 µM
TGI [7]: > 100 µM
TGI [8]: > 100 µM
TGI [9]: > 100 µM
TGI [10]: > 100 µM
TGI [11]: > 100 µM
TGI [56]: > 100 µM
TGI [12]: > 100 µM
TGI [13]: > 100 µM
TGI [14]: > 100 µM
TGI [15]: > 100 µM
TGI [16]: > 100 µM
TGI [17]: > 100 µM
TGI [18]: > 100 µM
TGI [19]: > 100 µM
TGI [20]: > 100 µM
TGI [21]: > 100 µM
TGI [22]: > 100 µM
TGI [23]: > 100 µM
TGI [24]: > 100 µM
TGI [25]: > 100 µM
TGI [57]: > 100 µM
TGI [58]: > 100 µM
TGI [26]: > 100 µM
TGI [27]: > 100 µM
TGI [28]: > 100 µM
TGI [29]: > 100 µM
TGI [30]: > 100 µM
TGI [31]: > 100 µM
TGI [32]: > 100 µM
TGI [33]: > 100 µM
TGI [35]: > 100 µM
TGI [36]: > 100 µM
TGI [37]: > 100 µM
TGI [38]: > 100 µM
TGI [39]: > 100 µM
TGI [40]: > 100 µM
TGI [41]: > 100 µM
TGI [43]: > 100 µM
TGI [44]: > 100 µM
TGI [45]: > 100 µM
TGI [46]: > 100 µM
TGI [48]: > 100 µM
TGI [49]: > 100 µM
TGI [50]: > 100 µM
TGI [59]: > 100 µM
TGI [51]: > 100 µM
TGI [53]: > 100 µM
TGI [54]: > 100 µM

CCOC(=O)c1nc2ccccc2nc1Nc1ccc(Cl)c(Cl)c1
TGI [3]: > 100 µM
TGI [4]: > 100 µM
TGI [5]: > 100 µM
TGI [55]: > 100 µM
TGI [6]: 49.5 µM
TGI [7]: > 100 µM
TGI [8]: > 100 µM
TGI [10]: 83.2 µM
TGI [56]: > 100 µM
TGI [12]: > 100 µM
TGI [13]: > 100 µM
TGI [14]: > 100 µM
TGI [15]: > 100 µM
TGI [17]: > 100 µM
TGI [18]: > 100 µM
TGI [19]: > 100 µM
TGI [21]: > 100 µM
TGI [22]: > 100 µM
TGI [23]: > 100 µM
TGI [24]: > 100 µM
TGI [25]: > 100 µM
TGI [57]: > 100 µM
TGI [26]: > 100 µM
TGI [27]: > 100 µM
TGI [28]: > 100 µM
TGI [29]: > 100 µM
TGI [30]: > 100 µM
TGI [31]: > 100 µM
TGI [32]: > 100 µM
TGI [33]: > 100 µM
TGI [34]: > 100 µM
TGI [35]: > 100 µM
TGI [36]: > 100 µM
TGI [37]: 47.1 µM
TGI [38]: 65.5 µM
TGI [39]: > 100 µM
TGI [41]: > 100 µM
TGI [42]: > 100 µM
TGI [43]: 68.4 µM
TGI [44]: > 100 µM
TGI [45]: > 100 µM
TGI [46]: > 100 µM
TGI [47]: > 100 µM
TGI [48]: 44.5 µM
TGI [49]: 63 µM
TGI [50]: > 100 µM
TGI [51]: 70.9 µM
TGI [52]: 93.9 µM
TGI [53]: > 100 µM
TGI [54]: > 100 µM
